In patent publication US20180140578A1, “METHODS AND COMPOSITIONS FOR THE DIAGNOSIS AND SELECTIVE TREATMENT OF CANCER” (Board of Regents of the University of Texas System, priority 2016, published 2018):
Where two headings read alike, the source gives them in different places.

Assays:
HCT-116 cells = test: Cell viability assay (CellTiter-Glo); type: cell-based, human; settings: for toxicity to HCT-116 cells: at concentrations as high as 50 μM; for IC50: read-out: concentration required to reduce the viability by 50% (IC50), parental HCT-116 cells
Description: The identity for all human cell lines in this study was confirmed by short tandem repeat (STR) analysis. In addition, all human cell lines were confirmed to be mycoplasma free using a PCR based assay (Genatlantis). HCT-116 cells (ATCC) were grown in DMEM medium with 10% FBS and 2 mM L-glutamine. Lenti-X 293T cells (Clontech) were cultured in DMEM medium with 10% FBS and 2 mM L-glutamine. H1155 cells (a gift from Adi Gazdar and John Minna, UT Southwestern) were cultured in RPMI media with 5% FBS and 2 mM L-glutamine. SF9 cells (a gift from Hongtao Yu, UT Southwestern) were cultured in SF900 II serum free media (Life Technologies).
(§1) 12-point dose responses were performed on 96-well assay plates with cell plating (1500-4000 cell per well) on day 1, compound addition on day 2, and survival measurement on day 5. Compounds were diluted in DMSO before adding to the cells. Final DMSO concentration was 0.5%. Cell survival assay was performed using CellTiter-Glo Luminescent Cell Viability Assay kit (Promega) that measures cellular ATP content. Luminescence was recorded by EnVison multimode plate reader (Perkin Elmer). IC50 was determined with GraphPad Prism using baseline correction (by normalizing to DMSO control), the asymmetric (five parameter) equation and least squares fit.

RBM39-Nluc = molecular target: T1, RBM39-Nluc (Homo sapiens, UniProt Q14498+Q66K64); test: RBM39-Nluc degradation by Nano-Glo luciferase assay; type: cell-based; settings: H1155 RBM39-Nluc cells; read-out: decrease in RBM39-Nluc activity (IC50)
T1 construct: Homology directed repair facilitates tagging of endogenous RBM39 by AID, 3xFLAG, AcGFP, or Nanoluciferase; endogenous in cells; host or cells: H1155 RBM39-Nluc knock-in cells
Description: NanoLuc was knocked-in to the 3-prime end of the RBM39 gene using the procedure described above yielding H1155 RBM39-Nluc cells. […] Luminescence was recorded by EnVision multimode plate reader (Perkin Elmer). IC50 was determined with GraphPad Prism using baseline correction (by normalizing to DMSO control), the asymmetric (five parameter) equation and least squares fit.

[1] = system: HCT-116 RBM39 G268V knock-in cells; test: Cell viability assay, RBM39 G268V knock-in; type: cell-based, human; settings: at concentrations as high as 50 μM
Description: as §1
sgRNA targeting RBM39 (5′-[…]-3′) was cloned into the pSpCas9(BB)-2A-Puro (PX459) vector (Addgene 62988). For RBM39 G268V knock-in, 1 million HCT-116 or H1155 cells were nucleofected (using 4D-Nucleofector, Lonza) with PX459-RBM39 sgRNA and the single-stranded oligo 5′-[…] […] […] […]-3′ (SEQ ID NO: 13).

[2] = system: DCAF15-3xFLAG and mutant RBM39Δ150 (M265L, E271Q, P272S); test: RBM39Δ150 pulldown assay, mutant RBM39; type: binding, human; settings: M265L, E271Q, P272S
Description: RBM39 lacking the first 150 amino acids after the start codon (RBM39Δ150) was cloned into the pFastBac1 (Life Technologies) vector. Site-directed Mutagenesis of RBM39 was performed using Q5 site-directed mutagenesis kit (NEB). DCAF15-GST (C-terminal GST tag) and DDB1 were also cloned into pFastBac1. The production of baculovirus was carried out following vendor's instructions. Protein was expressed in SF9 cells by infection with each protein specific baculovirus, and cells were harvested 48 hr later and frozen in liquid nitrogen. For purification of RBM39Δ150, frozen cells were pulverized by cryomill and resuspended in lysis buffer (40 mM Tris, pH 7.5, 225 mM NaCl, 1× […] Protease inhibitor). The lysate was passed through a 22 gauge needle 2 times followed by ultracentrifugation at 25000 rpm for 30 min. Clarified lysate was incubated with Ni-NTA agarose (Qiagen) for 30 min with rotation at 4° C. Resin and bound protein were washed with wash buffer 1 (40 mM Tris, pH 7.5, 225 mM NaCl) followed by wash buffer 2 (40 mM Tris, pH 7.5, 20 mM imidazole, 225 mM NaCl). Proteins were eluted with elution buffer (40 mM Tris, pH 7.5, 300 mM imidazole, 225 mM NaCl) and concentrated to 0.5 ml. Concentrated proteins were then fractionated on Superdex 200 Increase 10/300 GL (GE Healthcare). […]

[3] = molecular target: T2, DCAF15-3xFLAG and RBM39Δ150 (Homo sapiens, UniProt Q14498+Q66K64); test: RBM39Δ150 pulldown assay; type: binding; settings: wild type RBM39Δ150
T2 construct: Full-length cDNAs encoding CUL4A, CUL4B, DCAF15, and DDB1 were cloned into pLVX IRES Puro; made in house; host or cells: RBM39Δ150: Sf9 (baculovirus); DCAF15-3xFLAG: anti-FLAG beads from HCT-116 or 293T cells stably expressing it
T2 sequence (Q66K64 whole entry, stated change not applied): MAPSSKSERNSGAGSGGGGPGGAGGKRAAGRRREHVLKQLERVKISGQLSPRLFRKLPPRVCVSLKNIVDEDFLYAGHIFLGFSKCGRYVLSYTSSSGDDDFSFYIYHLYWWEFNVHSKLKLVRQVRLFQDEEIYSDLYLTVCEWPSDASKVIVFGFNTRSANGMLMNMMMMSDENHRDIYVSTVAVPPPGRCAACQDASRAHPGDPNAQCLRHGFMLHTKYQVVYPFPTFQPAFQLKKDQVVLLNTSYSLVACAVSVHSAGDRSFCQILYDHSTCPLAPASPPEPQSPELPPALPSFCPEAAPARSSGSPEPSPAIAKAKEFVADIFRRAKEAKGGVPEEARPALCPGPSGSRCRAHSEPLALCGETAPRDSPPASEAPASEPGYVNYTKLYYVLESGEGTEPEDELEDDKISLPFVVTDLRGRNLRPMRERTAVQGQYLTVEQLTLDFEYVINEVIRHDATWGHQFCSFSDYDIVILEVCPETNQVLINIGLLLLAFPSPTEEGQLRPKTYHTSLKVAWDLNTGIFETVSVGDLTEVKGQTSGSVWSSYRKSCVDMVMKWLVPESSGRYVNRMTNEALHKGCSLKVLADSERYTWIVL
T2 sequence (Q14498 151-530 limits assumed, stated change not applied): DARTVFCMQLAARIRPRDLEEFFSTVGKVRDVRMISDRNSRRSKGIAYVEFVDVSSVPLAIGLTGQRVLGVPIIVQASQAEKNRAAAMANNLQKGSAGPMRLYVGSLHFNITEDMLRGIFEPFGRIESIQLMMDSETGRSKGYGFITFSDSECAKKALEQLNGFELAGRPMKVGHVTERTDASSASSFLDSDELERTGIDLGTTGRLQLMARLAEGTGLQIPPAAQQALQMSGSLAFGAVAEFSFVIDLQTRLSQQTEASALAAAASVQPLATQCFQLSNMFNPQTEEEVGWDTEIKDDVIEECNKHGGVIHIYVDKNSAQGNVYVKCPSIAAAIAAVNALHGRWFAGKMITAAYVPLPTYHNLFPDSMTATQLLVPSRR
T2 sequence (Q16531 whole entry partner): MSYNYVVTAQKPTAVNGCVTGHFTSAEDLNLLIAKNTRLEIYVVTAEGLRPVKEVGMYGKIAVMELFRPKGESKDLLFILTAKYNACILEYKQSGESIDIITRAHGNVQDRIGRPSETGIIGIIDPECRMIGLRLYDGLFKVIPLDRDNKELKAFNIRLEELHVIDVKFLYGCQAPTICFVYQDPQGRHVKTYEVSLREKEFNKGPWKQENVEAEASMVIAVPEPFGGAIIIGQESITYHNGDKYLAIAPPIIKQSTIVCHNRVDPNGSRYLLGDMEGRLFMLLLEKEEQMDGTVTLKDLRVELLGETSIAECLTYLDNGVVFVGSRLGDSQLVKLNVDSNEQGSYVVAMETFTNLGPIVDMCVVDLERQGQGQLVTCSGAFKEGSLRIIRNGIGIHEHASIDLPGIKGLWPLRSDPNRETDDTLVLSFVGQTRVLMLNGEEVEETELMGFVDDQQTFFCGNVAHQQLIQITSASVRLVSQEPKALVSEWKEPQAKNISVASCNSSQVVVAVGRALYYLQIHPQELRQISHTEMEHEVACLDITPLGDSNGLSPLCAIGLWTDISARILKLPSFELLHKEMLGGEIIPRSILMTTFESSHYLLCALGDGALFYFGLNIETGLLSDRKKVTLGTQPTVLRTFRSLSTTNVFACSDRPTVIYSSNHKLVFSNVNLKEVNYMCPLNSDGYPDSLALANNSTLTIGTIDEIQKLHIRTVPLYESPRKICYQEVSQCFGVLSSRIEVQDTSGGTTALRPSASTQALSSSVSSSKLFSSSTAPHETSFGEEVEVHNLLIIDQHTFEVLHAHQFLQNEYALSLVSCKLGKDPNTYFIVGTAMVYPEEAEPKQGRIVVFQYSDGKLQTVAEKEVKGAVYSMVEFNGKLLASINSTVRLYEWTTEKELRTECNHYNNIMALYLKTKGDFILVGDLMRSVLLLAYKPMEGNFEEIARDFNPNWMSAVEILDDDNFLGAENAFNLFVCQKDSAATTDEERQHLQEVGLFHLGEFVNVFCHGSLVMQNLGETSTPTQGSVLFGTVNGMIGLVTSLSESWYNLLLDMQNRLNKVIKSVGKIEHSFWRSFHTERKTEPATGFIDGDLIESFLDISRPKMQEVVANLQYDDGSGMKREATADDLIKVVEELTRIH
Description: RBM39 lacking the first 150 amino acids after the start codon (RBM39Δ150) was cloned into the pFastBac1 (Life Technologies) vector. Site-directed Mutagenesis of RBM39 was performed using Q5 site-directed mutagenesis kit (NEB). DCAF15-GST (C-terminal GST tag) and DDB1 were also cloned into pFastBac1. The production of baculovirus was carried out following vendor's instructions. Protein was expressed in SF9 cells by infection with each protein specific baculovirus, and cells were harvested 48 hr later and frozen in liquid nitrogen. For purification of RBM39Δ150, frozen cells were pulverized by cryomill and resuspended in lysis buffer (40 mM Tris, pH 7.5, 225 mM NaCl, 1× […] Protease inhibitor). The lysate was passed through a 22 gauge needle 2 times followed by ultracentrifugation at 25000 rpm for 30 min. Clarified lysate was incubated with Ni-NTA agarose (Qiagen) for 30 min with rotation at 4° C. Resin and bound protein were washed with wash buffer 1 (40 mM Tris, pH 7.5, 225 mM NaCl) followed by wash buffer 2 (40 mM Tris, pH 7.5, 20 mM imidazole, 225 mM NaCl). Proteins were eluted with elution buffer (40 mM Tris, pH 7.5, 300 mM imidazole, 225 mM NaCl) and concentrated to 0.5 ml. Concentrated proteins were then fractionated on Superdex 200 Increase 10/300 GL (GE Healthcare). RBM39Δ150 and mutants eluted at 14.8 ml after injection and were stored at −80° C. in 40 mM Tris, pH 7.5, 225 mM NaCl. For purification of DCAF15-GST/DDB1, Sf9 cells co-infected with DCAF15-GST and DDB1 baculoviruses were lysed in PBS supplemented with 0.1% NP40, 1× […] Protease inhibitors, and 0.5 mM PMSF. The lysate was passed through a 22 gauge needle 2 times followed by centrifugation at 7000 rpm for 15 min. Clarified lysate was incubated with Glutathione Sepharose 4B resin (GE healthcare) for 30 min with rotation at 4° C. Resin was washed with PBS for three times before elution with 50 mM Tris, 10 mM glutathione, pH 8.
HCT-116 cells stably expressing DDB1-3xFLAG, CUL4A-3xFLAG, CUL4B-3xFLAG, or to DCAF15-3xFLAG were lysed in 1×PBS, 0.1% NP40, and 1× […] protease inhibitor (1 ml per […] plate). […]

[4] = system: RBM39 in UBA3 A171T HCT-116 cells; test: Block of indisulam dependent RBM39 degradation, MLN4924 resistant line; type: cell-based, human; settings: cells harboring UBA3 A171T mutation
From the text: (§2) (B) RBM39-AID is degraded in the presence of TIR1 and IAA in HCT-116 cells. (C) IAA and TIR1 dependent degradation of RBM39-AID results in cell death. Error bars represent standard errors of the mean (SEM) (n=3). […] The effect of bortezomib is attenuated in a bortezomib resistant cell line. […] The effect of MLN4924 is abrogated in an MLN4924 resistant cell line.
(§3) The methods for generating a population of barcoded HCT-116 cells were described before (20). […] Clones that appeared after the selection was then expanded and barcode genotyped to identify six clones with unique barcodes. […] Source data for exome sequencing data is available under NCBI SRA accession SRP068238. Bortezomib resistant clones were isolated by selection with 5 nM bortezomib, and MLN4924 resistant clones with 40 nM MLN4924.
(§4) Proteins were resolved on SDS-PAGE and transferred to 0.5 μm nitrocellulose membranes. Membranes were blocked in 5% milk TBST for 30 min, and then anti-RBM39 antibodies (HPA001591, Sigma-Aldrich) were added in 5% milk (1:5000) and incubated on a shaker overnight at 4° C. After three 5 min washes with TBST, membranes were incubated with HRP-conjugated goat anti-rabbit secondary antibody (Bio-Rad) for 2 hr at room temperature. After three 5 min washes with TBST, membranes were developed with ECL (enhanced chemiluminescence) substrates.

[5] = system: RBM39 in parental HCT-116 cells; test: Block of indisulam dependent RBM39 degradation, parental cells; type: cell-based, human
From the text: as §2, §4

RBM39-AID = test: Auxin induced degradation of RBM39 (western blotting); type: cell-based, human; settings: cells that express both RBM39-AID and TIR1
Description: (§5) TIR1 cDNA with a V5 tag sequence appended to its 3′ end was cloned into pLVX IRES zsGreenland packaged into lentivirus to infect both parental HCT-116 cells and RBM39-AID-3xFLAG knock-in cells. Following lentiviral delivery of TIR1, cells with top 5% strongest zsGreen expression were sorted by FACS. TIR1-V5 expression was confirmed by western blot with HRP conjugated anti-VS (Sigma-Aldrich, V2260, 1:5000). For examination of RBM39-AID-3xFLAG degradation, cells were treated with 500 μM IAA for 4 hours before being lysed for western blotting. For IAA dose response curves, cells were treated with various concentrations of IAA for 72 hours and ATP levels were quantified using Cell-Titer Glo (Promega).

[6] = system: HCT-116 cells expressing RBM39-AID and TIR1; test: IAA dose response, cell viability (Cell-Titer Glo); type: cell-based, human; settings: cells that express both RBM39-AID and TIR1
Description: as §5

[7] = system: RBM39 in PSMB5 A108T HCT-116 cells; test: Block of indisulam dependent RBM39 degradation, bortezomib resistant line; type: cell-based, human; settings: PSMB5 A108T cell line
From the text: as §2, §3, §4

[8] = system: indisulam resistant HCT-116 clones; test: Cell viability assay, indisulam resistant clones; type: cell-based, human; settings: six indisulam resistant clones
Description: as §3, §1

SMILES: CC1(C)O[C@@H]2[C@@H](CO[C@@]3(COS(N)(=O)=O)OC(C)(C)O[C@@H]23)O1 [topirimate, topiramate]
- toxicity to HCT-116 cells (HCT-116 cells): non-toxic

SMILES: Nc1ccc(S(=O)(=O)Nc2cnc3c(Cl)cccc3n2)cc1 [CQS, chloroquinoxaline sulfonamide]
- IC50 (HCT-116 cells; Homo sapiens): 7.1 µM
- DC50 (RBM39-Nluc): 2.4 µM

SMILES: O=C(NS(=O)(=O)c1ccc(Br)s1)c1ccc(Cl)cc1Cl [tasisulam]
- IC50 (HCT-116 cells): 6.5 µM
- IC50 (RBM39-Nluc): 5.6 µM
- sensitivity of cell line carrying RBM39 G268V [1]: insensitive
- recruitment of indisulam-resistant mutants of RBM39 to DCAF15 [2]: not effectively recruited
- recruitment of RBM39Δ150 to DCAF15 [3]: recruit RBM39Δ150 to DCAF15 in a dose-dependent manner

SMILES: NS(=O)(=O)OC[C@@H]1C[C@@H](n2ccc3c(N[C@H]4CCc5ccccc54)ncnc32)C[C@@H]1O [MLN4924]
- effect on degradation of RBM39 in response to indisulam [4]: did not observe this effect
- effect on degradation of RBM39 in response to indisulam ([5]; HCT-116 cells): blocked the degradation of RBM39

SMILES: O=C(O)Cc1c[nH]c2ccccc12 [IAA, 3-indoleacetic acid]
- RBM39 levels (RBM39-AID): decrease in RBM39 levels
- cell viability [6]: loss in cell viability

SMILES: CC(C)C[C@H](NC(=O)[C@H](Cc1ccccc1)NC(=O)c1cnccn1)B(O)O [bortezomib]
- level of bortezomib required for comparable rescue of RBM39 levels, relative to parental [7]: 10 fold
- concentration of bortezomib that blocked the degradation of RBM39 in response to indisulam ([5]; parental cells, 2 h pretreatment, then 6 h 2 μM indisulam): 10 nM

SMILES: CC(=O)O[C@H]1C(=O)[C@@]2(C)[C@H]([C@H](OC(=O)c3ccccc3)[C@]3(O)C[C@H](OC(=O)[C@H](O)[C@@H](NC(=O)c4ccccc4)c4ccccc4)C(C)=C1C3(C)C)[C@]1(OC(C)=O)CO[C@@H]1C[C@@H]2O [paclitaxel]
- resistance of indisulam resistant clones to paclitaxel [8]: None of the clones were resistant

SMILES: CC(=O)Nc1nnc(S(N)(=O)=O)s1 [acetazolamide]
- toxicity to HCT-116 cells (HCT-116 cells): non-toxic
